In US10065972B2, “Bicyclic or tricyclic heterocyclic compound” (MITSUBISHI TANABE PHARMA CORPORATION, priority 2014, dated 2018):

Biological target: human recombinant KAT-II (Homo sapiens (Human), UniProt Q8N5Z0)
Test: KAT-II inhibitory test
Assay type: biochemical
Settings: 3.0 μmol/L kynurenine, 37° C., 1 hr, pH 8.0; kynurenic acid quantified by HPLC
Protocol: The compounds described in the above-mentioned Examples were used for the KAT-II inhibitory test.
Preparation of Human Recombinant KAT-II
Human recombinant KAT-II was prepared as follows.
His tag and maltose binding protein tag were added to the N-terminal of a gene encoding human KAT-II (Genbank accession number: AF481738.1), and the obtained gene was incorporated into pET32 (Merck Nihon Millipore), which is an Escherichia coli expression vector. Human recombinant KAT-II produced by BL21(DE3) Escherichia coli (Merck Nihon Millipore, 69450) transformed using the plasmid was purified using an amylose resin column (New England Biolabs, #800-21 L).
The inhibitory action of the test compound on human recombinant KAT-II was determined by the following method.
To a reaction mixture (45 μL) containing 3.0 μmol/L kynurenine, 10 μmol/L pyridoxal phosphate, 2.0 ng/μL human recombinant KAT-II, and 150 mmol/L tris(hydroxymethyl)aminomethane-acetate buffer (pH 8.0) was added a 10% dimethyl sulfoxide solution (5 μL) of each test compound prepared, and the mixture was reacted at 37° C. for 1 hr. After the reaction, 50% trichloroacetic acid (5 μL) was added to terminate the reaction.
The resultant kynurenic acid was quantified as follows by high performance liquid chromatography. An enzyme reaction mixture was separated by an octadecylsilane reversed-phase column (SC-50DS, Eicom Corporation; mobile phase: 250 mmol/L zinc acetate, 50 mmol/L sodium acetate, and 5.0% acetonitrile (pH 6.2)) incubated at 30° C., and kynurenic acid was quantified using a fluorescence detector (RF-20Axs, Shimadzu Corporation) at excitation wavelength 354 nm, detection wavelength 460 nm. The analytical curve was drawn every time by an external standard method. Each test compound was tested by dual measurement at each concentration.

human recombinant KAT-II, sequence (Q8N5Z0 30-425): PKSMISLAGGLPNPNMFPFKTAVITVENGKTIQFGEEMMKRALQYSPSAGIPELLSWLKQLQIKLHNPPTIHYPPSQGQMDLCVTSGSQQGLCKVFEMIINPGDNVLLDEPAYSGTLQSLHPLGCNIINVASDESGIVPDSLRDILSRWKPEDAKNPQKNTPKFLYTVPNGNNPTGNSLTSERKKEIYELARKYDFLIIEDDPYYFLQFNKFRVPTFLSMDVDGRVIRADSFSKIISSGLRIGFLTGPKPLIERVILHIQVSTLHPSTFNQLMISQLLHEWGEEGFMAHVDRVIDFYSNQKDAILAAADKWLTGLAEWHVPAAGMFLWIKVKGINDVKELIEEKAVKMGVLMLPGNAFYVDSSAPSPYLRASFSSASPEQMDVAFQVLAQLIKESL

Structure (SMILES) | IC50 [nM]
Cc1nc2sc([C@H]3CCCN3C(=O)Nc3csc4ncccc34)nn2c(=O)c1C [Example 175, (R)-2-(6,7-dimethyl-5-oxo-5H-[1,3,4]thiadiazolo[3,2-a]pyrimidin-2-yl)-N-(thieno[2,3-b]pyridin-3-yl)-pyrrolidine-1-carboxamide] | 3700
CCCc1cc(=O)n2nc(N3CCCN3C(=O)Oc3ccccc3)sc2n1 [Example 176, 2-(5-oxo-7-propyl-5H-[1,3,4]thiadiazolo[3,2-a]pyrimidin-2-yl)pyrazolidine-1-carboxylic acid phenyl ester] | 520
CCc1nc2sc(N3CCC[C@@H]3C(=O)NCc3cccc(F)c3)nc2c(=O)n1C [Example 183, (R)-1-(5-ethyl-6-methyl-7-oxo-6,7-dihydro-[1,3]thiazolo[5,4-d]pyrimidin-2-yl)-N-(3-fluorobenzyl)pyrrolidine-2-carboxamide] | 32
Cn1c(C(F)(F)F)nc2sc(N3CCC[C@@H]3C(=O)NCc3ccccc3)nc2c1=O [Example 190, (R)-N-benzyl-1-(6-methyl-7-oxo-5-trifluoromethyl-6,7-dihydro-[1,3]thiazolo[5,4-d]pyrimidin-2-yl)pyrrolidine-2-carboxamide] | 26
COCCn1c(C(F)F)nc2sc(N3CCC[C@@H]3C(=O)NCc3ccccc3)nc2c1=O [Example 191, (R)-N-benzyl-1-[5-difluoromethyl-6-(2-methoxy-ethyl)-7-oxo-6,7-dihydro-[1,3]thiazolo[5,4-d]pyrimidin-2-yl]pyrrolidine-2-carboxamide] | 31
Cn1c(-c2ccccn2)nc2sc(N3CCC[C@@H]3C(=O)NCc3ccccc3)nc2c1=O [Example 194, (R)-N-benzyl-1-[6-methyl-7-oxo-5-(pyridin-2-yl)-6,7-dihydro-[1,3]thiazolo[5,4-d]pyrimidin-2-yl]pyrrolidine-2-carboxamide] | 76
Cn1c(-c2c(F)cc(F)cc2F)nc2sc(N3CCC[C@@H]3C(=O)NCc3ccccc3)nc2c1=O [Example 203, (R)-N-benzyl-1-[6-methyl-7-oxo-5-(2,4,6-trifluorophenyl)-6,7-dihydro[1,3]thiazolo[5,4-d]pyrimidin-2-yl]pyrrolidine-2-carboxamide] | 14
Cn1c(-c2c(F)cccc2F)nc2sc(N3CCC[C@@H]3C(=O)NCc3ccccc3)nc2c1=O [Example 204, (R)-N-benzyl-1-[5-(2,6-difluorophenyl)-6-methyl-7-oxo-6,7-dihydro[1,3]thiazolo[5,4-d]pyrimidin-2-yl]pyrrolidine-2-carboxamide] | 7
Cc1noc(-c2nc3sc(N4CCC[C@@H]4C(=O)NCc4ccccc4)nc3c(=O)n2C)n1 [Example 211, (R)-N-benzyl-1-[6-methyl-5-(3-methyl-1,2,4-oxadiazol-5-yl)-7-oxo-6,7-dihydro[1,3]thiazolo[5,4-d]pyrimidin-2-yl]pyrrolidine-2-carboxamide] | 7.3
Cc1noc(-c2nc3sc(N4CCC[C@@H]4C(=O)NCc4ccc(F)cc4)nc3c(=O)n2C)n1 [Example 213, (R)-N-(4-fluorobenzyl)-1-[6-methyl-5-(3-methyl-[1,2,4]oxadiazol-5-yl)-7-oxo-6,7-dihydro[1,3]thiazolo[5,4-d]pyrimidin-2-yl]pyrrolidine-2-carboxamide] | 16
Cc1noc(-c2nc3sc(N4CCC[C@@H]4C(=O)NCc4ccccc4)nc3c(=O)n2CC(F)F)n1 [Example 221, (R)-N-benzyl-1-[6-(2,2-difluoroethyl)-5-(3-methyl-1,2,4-oxadiazol-5-yl)-7-oxo-6,7-dihydro[1,3]thiazolo[5,4-d]pyrimidin-2-yl]pyrrolidine-2-carboxamide] | 4.8
CC1(Cn2c(C(F)(F)F)nc3sc(N4CCC[C@@H]4C(=O)NCc4ccccc4)nc3c2=O)COC1 [Example 227, (R)-N-benzyl-1-{6-[(3-methyloxetan-3-yl)methyl]-7-oxo-5-trifluoromethyl-6,7-dihydro[1,3]thiazolo[5,4-d]pyrimidin-2-yl}pyrrolidine-2-carboxamide] | 72
Cc1ccccc1CNC(=O)[C@H]1CCCN1c1nc2c(=O)n(C)c(C)nc2s1 [Example 229, (R)-1-(5,6-dimethyl-7-oxo-6,7-dihydro-[1,3]thiazolo[5,4-d]pyrimidin-2-yl)-N-(2-methylbenzyl)pyrrolidine-2-carboxamide] | 21
CCc1nc2sc(N3CC[C@@H]3C(=O)NCc3ccccc3)nc2c(=O)n1C [Example 233, (R)-N-benzyl-1-(5-ethyl-6-methyl-7-oxo-6,7-dihydro-[1,3]thiazolo[5,4-d]pyrimidin-2-yl)azetidine-2-carboxamide] | 120
CCc1nc2sc(N3CCCC[C@@H]3C(=O)NCc3ccccc3)nc2c(=O)n1CC [Example 236, (R)-N-benzyl-1-(5,6-diethyl-7-oxo-6,7-dihydro-[1,3]thiazolo[5,4-d]pyrimidin-2-yl)piperidine-2-carboxamide] | 240
O=C(NCc1ccccc1)[C@H]1CCCN1c1nc2c(=O)n(C3CCCC3)cnc2s1 [Example 238, (R)-N-benzyl-1-(6-cyclopentyl-7-oxo-6,7-dihydro-[1,3]thiazolo[5,4-d]pyrimidin-2-yl)pyrrolidine-2-carboxamide] | 16
O=C(NCc1ccccc1)[C@H]1CCCN1c1nc2c(=O)n(C3CCOCC3)c(C(F)(F)F)nc2s1 [Example 244, (R)-N-benzyl-1-[7-oxo-6-(tetrahydro-2H-pyran-4-yl)-5-trifluoromethyl-6,7-dihydro-[1,3]thiazolo[5,4-d]pyrimidin-2-yl]pyrrolidine-2-carboxamide] | 11
O=C(NCc1ccccc1)[C@H]1CCCN1c1nc2c(=O)n(C3COC3)c(C(F)(F)F)nc2s1 [Example 251, (R)-N-benzyl-1-[6-(oxetan-3-yl)-7-oxo-5-trifluoromethyl-6,7-dihydro-[1,3]thiazolo[5,4-d]pyrimidin-2-yl]pyrrolidine-2-carboxamide] | 40
O=C(NCc1ccccc1)[C@H]1CCCN1c1nc2c(=O)n(N3CCCC3)c(C(F)(F)F)nc2s1 [Example 252, (R)-N-benzyl-1-[7-oxo-6-(pyrrolidin-1-yl)-5-trifluoromethyl-6,7-dihydro-[1,3]thiazolo[5,4-d]pyrimidin-2-yl]pyrrolidine-2-carboxamide] | 19
O=C(NCc1ccccc1)[C@H]1CCCN1c1nc2c(=O)n(N3CCOCC3)c(C(F)(F)F)nc2s1 [Example 253, (R)-N-benzyl-1-[6-(morpholin-4-yl)-7-oxo-5-trifluoromethyl-6,7-dihydro-[1,3]thiazolo[5,4-d]pyrimidin-2-yl]pyrrolidine-2-carboxamide] | 89
O=C(NCc1ccccc1)[C@H]1CCCN1c1nc2c(=O)n(CC3CCOCC3)c(C(F)F)nc2s1 [Example 254, (R)-N-benzyl-1-{5-difluoromethyl-7-oxo-6-[(tetrahydro-2H-pyran-4-yl)methyl]-6,7-dihydro-[1,3]thiazolo[5,4-d]pyrimidin-2-yl}pyrrolidine-2-carboxamide] | 11
COCc1nc2sc(N3CCC[C@@H]3C(=O)NCc3ccccc3)nc2c(=O)n1C1CC1 [Example 258, (R)-N-benzyl-1-[6-cyclopropyl-5-methoxymethyl-7-oxo-6,7-dihydro[1,3]thiazolo[5,4-d]pyrimidin-2-yl]pyrrolidine-2-carboxamide] | 180
Cn1c(C2CCOCC2)nc2sc(N3CCC[C@@H]3C(=O)NCc3ccccc3)nc2c1=O [Example 259, (R)-N-benzyl-1-[6-methyl-7-oxo-5-(tetrahydro-2H-pyran-4-yl)-6,7-dihydro[1,3]thiazolo[5,4-d]pyrimidin-2-yl]pyrrolidine-2-carboxamide] | 4.3
CN1CCC(n2c(C(F)(F)F)nc3sc(N4CCC[C@@H]4C(=O)NCc4ccccc4)nc3c2=O)CC1 [Example 264, (R)-N-benzyl-1-[6-(1-methylpiperidin-4-yl)-7-oxo-5-trifluoromethyl-6,7-dihydro-[1,3]thiazolo[5,4-d]pyrimidin-2-yl]pyrrolidine-2-carboxamide] | 160
C[C@@H](NC(=O)[C@H]1CCCN1c1nc2c(=O)n(C)c(C(C)(F)F)nc2s1)c1ccccc1 [Example 267, (R)-1-[5-(1,1-difluoroethyl)-6-methyl-7-oxo-6,7-dihydro[1,3]thiazolo[5,4-d]pyrimidin-2-yl]-N-((R)-1-phenylethyl)pyrrolidine-2-carboxamide] | 22
Cn1c(C2(F)CC2)nc2sc(N3CCC[C@@H]3C(=O)NCc3ccccc3)nc2c1=O [Example 268, (R)-N-benzyl-1-[5-(1-fluorocyclopropyl)-6-methyl-7-oxo-6,7-dihydro[1,3]thiazolo[5,4-d]pyrimidin-2-yl]pyrrolidine-2-carboxamide] | 8.8
Cn1c(C(F)(F)c2ccccn2)nc2sc(N3CCC[C@@H]3C(=O)NCc3ccccc3)nc2c1=O [Example 273, (R)-N-benzyl-1-{5-[difluoro(pyridin-2-yl)methyl]-6-methyl-7-oxo-6,7-dihydro[1,3]thiazolo[5,4-d]pyrimidin-2-yl}pyrrolidine-2-carboxamide] | 5.6
